Read-outs that look alike come from different tables or passages of the source.
Tests used:
Type in all cases: cell-based
SARS-CoV-2 = experiment: microbe, parasite or virus in culture; conditions: read-out: half effective concentration EC50 on activity of SARS-CoV-2
cell Vero-E6 = experiment: Cytotoxicity detection (CCK-8), cell Vero-E6; conditions: for toxic effect on the cell Vero-E6: 48 hours, CCK-8; for cytotoxicity: within the effective concentration range, cell not named
Method: (§1) • 1. Method: • 1) Cell inoculation: Cells Vero-E6 and 293T/ACE2 in a logarithmic growth period were taken, cell densities thereof were adjusted to 1^∗10^4 cells/well, and 100 µL/well thereof were respectively inoculated on a 96-well plate and cultured overnight. • 2) Drug concentration design: Before administration, a drug was diluted to nine concentration gradients with a DMEM medium containing fetal bovine serum of 2% of a total volume twice multiple proportions, and an initial concentration of the drug was set to 200 µM (200, 100, 50, 25, 12.5, 6.25, 3.125, 1.5625, 0.78125 µM), and 100 µL per well of a diluted drug was taken to be added into the cells Vero-E6 and 293T/ACE2 in the 96-well plate in 1), with a final volume of 200 µL per well. Triplicate wells were set for each drug concentration. A DMSO solvent treatment group was used as a blank control. • 3) Absorbance detection: After incubation in an incubator for 48 hours, 10 µL of a CCK-8 working solution was added into each well, and incubation continued to be conducted in the incubator for 3 hours. The absorbance at 450 nm was measured by a microplate reader. • 4) According to measured OD values, survival rates of the cells Vero-E6 and 293T/ACE2 under the action of various concentrations of the drug were calculated respectively compared with the control group. • 2.
(§2) • 1. Method: • 1) Cell inoculation: Cells Vero-E6 and 293T/ACE2 in a logarithmic growth period were taken, cell densities thereof were adjusted to 1^∗10^4 cells/well, and 100 µL/well thereof were respectively inoculated on a 96-well plate and cultured overnight in a 37°C cell incubator. • 2) Drug concentration design: Before administration, a drug was diluted to eight concentration gradients with a DMEM medium containing fetal bovine serum of 2% of a total volume twice multiple proportions. Cell Vero-E6: an initial concentration was set to 200 µM (200, 100, 50, 25, 12.5, 6.25, 3.125, 1.5625 µM), and 100 µL per well of a diluted drug was taken to be added into the cell Vero-E6 in the 96-well plate in 1), with a final volume of 200 µL per well. Triplicate wells were set for each drug concentration. A DMSO solvent treatment group was used as a blank control. Cell 293T/ACE2: an initial concentration was set to 100 µM (100, 50, 25, 12.5, 6.25, 3.125, 1.5625, 0.78125 µM), and 100 µL per well of a diluted drug was taken to be added into the cell 293T/ACE2 in the 96-well plate in 1), with a final volume of 200 µL per well. Triplicate wells were set for each drug concentration. A DMSO solvent treatment group was used as a blank control. • 3) Absorbance detection: After incubation in an incubator for 48 hours, 10 µL of a CCK-8 working solution was added into each well, and incubation continued to be conducted in the incubator for 3 hours. The absorbance at 450 nm was measured by a microplate reader. • 4) According to measured OD values, survival rates of the cells Vero-E6 and 293T/ACE2 under the action of various concentrations of the drug were calculated respectively compared with the control group.
• 1. Method: • 1) Cell inoculation: Cells Vero-E6 and 293T/ACE2 in a logarithmic growth period were taken, cell densities thereof were adjusted to 1^∗10^4 cells/well, and 100 µL/well thereof were respectively inoculated on a 96-well plate and cultured overnight. • 2) Drug concentration design: Before administration, a drug was diluted to nine concentration gradients with a DMEM medium containing fetal bovine serum of 2% of a total volume twice multiple proportions, and an initial concentration was set to 200 µM (200, 100, 50, 25, 12.5, 6.25, 3.125, 1.5625, 0.78125 µM), and 100 µL per well of a diluted drug was taken to be added into the cells Vero-E6 and 293T/ACE2 in the 96-well plate in 1), with a final volume of 200 µL per well. Triplicate wells were set for each drug concentration. […]

SARS-CoV-2 pseudovirus = experiment: microbe, parasite or virus in culture; conditions: Severe acute respiratory syndrome-related coronavirus, 293T/ACE2, 48 h, read-out: half inhibitory concentration IC50 to inhibit entering of the SARS-CoV-2 pseudovirus into a target cell
cell 293T/ACE2 = experiment: Cytotoxicity detection (CCK-8), cell 293T/ACE2; conditions: 48 hours
Method: as §1
as §2, with “Cell 293T/ACE2: an initial concentration was set to 100 µM (100, 50, 25, 12.5, 6.25, 3.125, 1.5625, 0.78125 µM), and 100 µL per well of a diluted drug was taken to be added into the cell 293T/ACE2 in the 96-well plate in 1), with a final volume of 200 µL per well. Triplicate wells were set for each drug concentration.” left out, “group. […]” for “group.”

[1] = Severe acute respiratory syndrome coronavirus 2, Vero C1008, 24 h
[2] = at 200 µM and within an effective concentration range
[3] = at 100 µM and within an effective concentration range

SMILES	EC50 (SARS-CoV-2; [1]) [nM]	toxic effect on the cell Vero-E6 (cell Vero-E6; at 10 µM and within an effective concentration range)	cytotoxicity (cell Vero-E6)	IC50 (SARS-CoV-2 pseudovirus) [nM]	toxic effect on the cell 293T/ACE2 (cell 293T/ACE2; at 2.5 µM and within an effective concentration range)	toxic effect on the cell Vero-E6 (cell Vero-E6; [2])	toxic effect on the cell 293T/ACE2 (cell 293T/ACE2; [3])	EC50 (SARS-CoV-2) [nM]	toxic effect on the cell Vero-E6 (cell Vero-E6; [3])	toxic effect on the cell 293T/ACE2 (cell 293T/ACE2; [2])
Cc1cccc2c3c(ccc12)C1=C(C(=O)C3=O)[C@@H](C)CO1 [dihydrotanshinone I]	640	no obvious toxic effect	no obvious cytotoxicity	680	no obvious toxic effect	–	–	–	–	–
O=C(/C=C/c1ccc(O)c2c1[C@H](C(=O)O[C@H](Cc1ccc(O)c(O)c1)C(=O)O)[C@@H](c1ccc(O)c(O)c1)O2)O[C@H](Cc1ccc(O)c(O)c1)C(=O)O [salvianolic acid B]	55500	–	no obvious cytotoxicity	416	–	no obvious toxic effect	no obvious toxic effect	–	–	–
Cc1coc2c1C(=O)C(=O)c1c-2ccc2c(C)cccc12 [Tanshinone I]	–	–	no obvious cytotoxicity	–	–	–	–	2980	no obvious toxic effect	–
O=C(/C=C/c1ccc(O)c2oc(-c3ccc(O)c(O)c3)cc12)O[C@H](Cc1ccc(O)c(O)c1)C(=O)O [salvianolic acid C]	3410	–	no obvious cytotoxicity	5900	–	no obvious toxic effect	–	–	–	no obvious toxic effect
C[C@H]1COC2=C1C(=O)C(=O)c1c2ccc2c1CCCC2(C)C [cryptotanshinone, Cryptotanshinone]	1460	–	no obvious cytotoxicity	–	–	–	–	–	no obvious toxic effect	–
O=C(O)[C@H](O)Cc1ccc(O)c(O)c1 [salvianic acid A]	1070	–	no obvious cytotoxicity	2700	–	no obvious toxic effect	–	–	–	no obvious toxic effect

Source: EP4154878A1, “APPLICATION OF ACTIVE […] ROOT OF […] OR PHARMACEUTICALLY ACCEPTABLE SALT THEREOF IN PREPARING ANTIVIRAL DRUG” (priority 2020, dated 2021)
